The values below come from US20100280015A1 (priority 2007, published 2010).

Counter-ions that a name gives are not always drawn.

This experiment has as its target α7-subtype of nicotinic receptors (Rattus norvegicus, UniProt Q05941). As to the kind of experiment: biochemical. In kind it is binding.

Sequence of α7-subtype of nicotinic receptors (Q05941 23-502): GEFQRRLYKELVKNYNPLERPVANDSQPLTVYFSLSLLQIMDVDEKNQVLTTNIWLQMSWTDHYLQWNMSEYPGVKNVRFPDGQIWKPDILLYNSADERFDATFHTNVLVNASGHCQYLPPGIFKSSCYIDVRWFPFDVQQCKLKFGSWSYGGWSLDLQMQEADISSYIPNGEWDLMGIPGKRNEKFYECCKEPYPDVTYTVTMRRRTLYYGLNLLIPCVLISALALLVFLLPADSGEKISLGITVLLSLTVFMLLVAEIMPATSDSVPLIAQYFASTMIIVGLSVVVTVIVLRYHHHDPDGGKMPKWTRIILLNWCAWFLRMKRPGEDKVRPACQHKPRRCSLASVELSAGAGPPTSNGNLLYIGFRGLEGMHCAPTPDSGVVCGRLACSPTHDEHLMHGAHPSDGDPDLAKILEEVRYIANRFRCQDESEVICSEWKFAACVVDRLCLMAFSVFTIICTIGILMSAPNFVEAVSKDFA

In the case of `c1ccc(Oc2cccc(-c3nnc(N4CCN5CCC4CC5)o3)c2)cc1` [Compound A2, 4-[5-(3-Phenoxy-phenyl)-[1,3,4]oxadiazol-2-yl]-1,4-diaza-bicyclo[3.2.2]nonane fumaric acid salt], the IC50 is below 1 µM.

Compound `c1ccc(Oc2ccccc2-c2nnc(N3CCN4CCC3CC4)o2)cc1` [Compound A1, 4-[5-(2-Phenoxy-phenyl)-[1,3,4]oxadiazol-2-yl]-1,4-diaza-bicyclo[3.2.2]nonane fumaric acid salt] returned an IC50 below 0.1 µM.

What is called IC50 is the concentration at which inhibition is half-maximal.
